Laboratory results as given in the NIST ThermoML archive (doi:10.1016/j.fluid.2011.02.010).

Assay: xn = mol fraction of the nth substance listed
Conditions: 101 kPa, Liquid; for speed of sound: Frequency=2 MHz

CC[NH2+]CC.O=S(=O)([O-])O [diethylammonium hydrogen sulfate] + C[S+](C)[O-]
Conditions | mass density [kg/m3] | speed of sound [m/s] | viscosity [mPa·s]
298.15 K, x1 = 0.0569 | – | 1486 | 2.94
298.15 K, x1 = 0.1196 | – | 1476 | 4.13
298.15 K, x1 = 0.189 | – | 1466 | 5.55
298.15 K, x1 = 0.2461 | – | 1460 | 6.77
298.15 K, x1 = 0.308 | – | 1450 | 8.15
298.15 K, x1 = 0.3756 | – | 1444 | 9.66
298.15 K, x1 = 0.4494 | – | 1434 | 11.38
298.15 K, x1 = 0.5306 | – | 1428 | 13.31
298.15 K, x1 = 0.6201 | – | 1424 | 15.49
298.15 K, x1 = 0.6852 | – | 1420 | 17.12
298.15 K, x1 = 0.7552 | – | 1420 | 18.87
298.15 K, x1 = 0.8306 | – | 1426 | 20.88
298.15 K, x1 = 0.912 | – | 1428 | 23.1
298.15 K, x1 = 1 | 1028.39 | 1432 | 25.8
303.15 K, x1 = 0.0569 | – | 1462 | 2.53
303.15 K, x1 = 0.1196 | – | 1452 | 3.48
303.15 K, x1 = 0.189 | – | 1442 | 4.64
303.15 K, x1 = 0.2461 | – | 1434 | 5.62
303.15 K, x1 = 0.308 | – | 1426 | 6.74
303.15 K, x1 = 0.3756 | – | 1418 | 8.01
303.15 K, x1 = 0.4494 | – | 1410 | 9.41
303.15 K, x1 = 0.5306 | – | 1404 | 11.02
303.15 K, x1 = 0.6201 | – | 1400 | 12.83
303.15 K, x1 = 0.6852 | – | 1398 | 14.18
303.15 K, x1 = 0.7552 | – | 1398 | 15.65
303.15 K, x1 = 0.8306 | – | 1400 | 17.27
303.15 K, x1 = 0.9121 | – | 1404 | 19.14
303.15 K, x1 = 1 | 1023.97 | 1408 | 21.3
308.15 K, x1 = 0.0569 | – | 1446 | 2.33
308.15 K, x1 = 0.1196 | – | 1436 | 3.16
308.15 K, x1 = 0.189 | – | 1428 | 4.12
308.15 K, x1 = 0.2461 | – | 1418 | 4.94
308.15 K, x1 = 0.308 | – | 1410 | 5.85
308.15 K, x1 = 0.3756 | – | 1402 | 6.86
308.15 K, x1 = 0.4494 | – | 1396 | 8.02
308.15 K, x1 = 0.5306 | – | 1388 | 9.35
308.15 K, x1 = 0.6201 | – | 1384 | 10.89
308.15 K, x1 = 0.6852 | – | 1384 | 12.06
308.15 K, x1 = 0.7552 | – | 1382 | 13.39
308.15 K, x1 = 0.8306 | – | 1384 | 14.84
308.15 K, x1 = 0.9121 | – | 1388 | 16.38
308.15 K, x1 = 1 | 1020.54 | 1392 | 18.1
318.15 K, x1 = 0.0569 | – | 1414 | 2
318.15 K, x1 = 0.1196 | – | 1404 | 2.63
318.15 K, x1 = 0.189 | – | 1392 | 3.33
318.15 K, x1 = 0.2461 | – | 1386 | 3.93
318.15 K, x1 = 0.308 | – | 1378 | 4.59
318.15 K, x1 = 0.3756 | – | 1370 | 5.34
318.15 K, x1 = 0.4494 | – | 1362 | 6.22
318.15 K, x1 = 0.5306 | – | 1356 | 7.19
318.15 K, x1 = 0.6201 | – | 1350 | 8.32
318.15 K, x1 = 0.6852 | – | 1348 | 9.16
318.15 K, x1 = 0.7552 | – | 1346 | 10.1
318.15 K, x1 = 0.8306 | – | 1348 | 11.1
318.15 K, x1 = 0.9121 | – | 1352 | 12.3
318.15 K, x1 = 1 | 1012.68 | 1356 | 13.61
328.15 K, x1 = 0.0569 | – | 1400 | 1.6
328.15 K, x1 = 0.1196 | – | 1406 | 2.24
328.15 K, x1 = 0.189 | – | 1392 | 2.95
328.15 K, x1 = 0.2461 | – | 1382 | 3.51
328.15 K, x1 = 0.308 | – | 1372 | 4.12
328.15 K, x1 = 0.3756 | – | 1362 | 4.77
328.15 K, x1 = 0.4494 | – | 1352 | 5.46
328.15 K, x1 = 0.5306 | – | 1342 | 6.21
328.15 K, x1 = 0.6201 | – | 1332 | 7.02
328.15 K, x1 = 0.6852 | – | 1326 | 7.57
328.15 K, x1 = 0.7552 | – | 1322 | 8.17
328.15 K, x1 = 0.8306 | – | 1320 | 8.8
328.15 K, x1 = 0.9121 | – | 1322 | 9.48
328.15 K, x1 = 1 | 1004.83 | 1324 | 10.2

CCCCn1cc[n+](C)c1.[Cl-] [1-butyl-3-methylimidazolium chloride] + C[S+](C)[O-]
Conditions | mass density [kg/m3] | speed of sound [m/s] | viscosity [mPa·s]
298.15 K, x1 = 0.0111 | 1096.4 | 1514 | 2.13
298.15 K, x1 = 0.0341 | 1096.96 | 1544 | 2.62
298.15 K, x1 = 0.0713 | 1097.81 | 1582 | 3.43
298.15 K, x1 = 0.1122 | 1098.51 | 1618 | 4.35
298.15 K, x1 = 0.1731 | 1098.36 | 1658 | 5.83
298.15 K, x1 = 0.2433 | 1097.41 | 1694 | 7.62
298.15 K, x1 = 0.3032 | 1095.8 | 1718 | 9.17
298.15 K, x1 = 0.3705 | 1093.86 | 1742 | 10.99
298.15 K, x1 = 0.4746 | 1090.52 | 1778 | 13.86
298.15 K, x1 = 0.5997 | 1086.4 | 1810 | 17.36
298.15 K, x1 = 0.7115 | 1083.11 | 1834 | 20.5
298.15 K, x1 = 0.843 | 1079.14 | 1848 | 24.28
298.15 K, x1 = 0.9445 | 1076.25 | 1856 | 27.39
298.15 K, x1 = 1 | 1074.43 | 1868 | 29.21
303.15 K, x1 = 0.0111 | 1093.12 | 1490 | 1.93
303.15 K, x1 = 0.0341 | 1094.05 | 1522 | 2.35
303.15 K, x1 = 0.0713 | 1094.88 | 1562 | 3.04
303.15 K, x1 = 0.1122 | 1095.16 | 1598 | 3.86
303.15 K, x1 = 0.1731 | 1095.51 | 1638 | 5.12
303.15 K, x1 = 0.2433 | 1094.39 | 1672 | 6.66
303.15 K, x1 = 0.3032 | 1092.84 | 1698 | 8.04
303.15 K, x1 = 0.3705 | 1090.91 | 1718 | 9.63
303.15 K, x1 = 0.4746 | 1087.56 | 1752 | 12.14
303.15 K, x1 = 0.5997 | 1083.53 | 1792 | 15.22
303.15 K, x1 = 0.7115 | 1080.09 | 1820 | 17.99
303.15 K, x1 = 0.843 | 1076.19 | 1844 | 21.34
303.15 K, x1 = 0.9445 | 1073.27 | 1852 | 24.12
303.15 K, x1 = 1 | 1071.38 | 1860 | 25.72
308.15 K, x1 = 0.0111 | 1087.12 | 1478 | 1.77
308.15 K, x1 = 0.0341 | 1088.6 | 1510 | 2.12
308.15 K, x1 = 0.0713 | 1089.65 | 1550 | 2.68
308.15 K, x1 = 0.1122 | 1090.4 | 1586 | 3.31
308.15 K, x1 = 0.1731 | 1090.8 | 1630 | 4.34
308.15 K, x1 = 0.2433 | 1089.91 | 1664 | 5.53
308.15 K, x1 = 0.3032 | 1088.61 | 1690 | 6.63
308.15 K, x1 = 0.3705 | 1086.93 | 1712 | 7.91
308.15 K, x1 = 0.4746 | 1083.87 | 1748 | 9.96
308.15 K, x1 = 0.5997 | 1080.1 | 1786 | 12.5
308.15 K, x1 = 0.7115 | 1076.93 | 1812 | 14.79
308.15 K, x1 = 0.843 | 1072.98 | 1832 | 17.57
308.15 K, x1 = 0.9445 | 1070.09 | 1840 | 19.84
308.15 K, x1 = 1 | 1068.32 | 1848 | 21.21
318.15 K, x1 = 0.0111 | 1077.1 | 1450 | 1.51
318.15 K, x1 = 0.0341 | 1078.9 | 1484 | 1.82
318.15 K, x1 = 0.0713 | 1080.54 | 1520 | 2.3
318.15 K, x1 = 0.1122 | 1081.62 | 1550 | 2.87
318.15 K, x1 = 0.1731 | 1082.42 | 1592 | 3.76
318.15 K, x1 = 0.2433 | 1081.92 | 1634 | 4.81
318.15 K, x1 = 0.3032 | 1080.89 | 1662 | 5.78
318.15 K, x1 = 0.3705 | 1079.44 | 1688 | 6.93
318.15 K, x1 = 0.4746 | 1076.76 | 1720 | 8.79
318.15 K, x1 = 0.5997 | 1073.27 | 1758 | 11.1
318.15 K, x1 = 0.7115 | 1070.22 | 1788 | 13.18
318.15 K, x1 = 0.843 | 1066.58 | 1808 | 15.7
318.15 K, x1 = 0.9445 | 1063.76 | 1814 | 17.76
318.15 K, x1 = 1 | 1062.14 | 1820 | 18.97
328.15 K, x1 = 0.0111 | 1067.04 | 1422 | 1.17
328.15 K, x1 = 0.0341 | 1069.24 | 1454 | 1.44
328.15 K, x1 = 0.0713 | 1071.41 | 1490 | 1.89
328.15 K, x1 = 0.1122 | 1072.82 | 1520 | 2.37
328.15 K, x1 = 0.1731 | 1074.01 | 1564 | 3.14
328.15 K, x1 = 0.2433 | 1073.91 | 1604 | 4.06
328.15 K, x1 = 0.3032 | 1073.16 | 1630 | 4.89
328.15 K, x1 = 0.3705 | 1071.9 | 1658 | 5.92
328.15 K, x1 = 0.4746 | 1069.49 | 1694 | 7.6
328.15 K, x1 = 0.5997 | 1066.39 | 1730 | 9.68
328.15 K, x1 = 0.7115 | 1063.48 | 1760 | 11.56
328.15 K, x1 = 0.843 | 1060.06 | 1788 | 13.82
328.15 K, x1 = 0.9445 | 1057.44 | 1796 | 15.65
328.15 K, x1 = 1 | 1055.89 | 1804 | 16.74
